Laboratory results taken from ChEMBL document CHEMBL1149951, “Antileukaemic properties of 12-hydroxydaphnetoxin derivatives” (Bioorg Med Chem Lett, 1994).
Activity calls are given as the source filed them. No cut-off for these calls is given here.

Columns and labels:
Mus musculus [1] = experiment: In vivo activity against mice infected with murine p388 lymphocytic leukemia cells at a ip dose of 0.1 mg/kg; type: functional; details: route intraperitoneal
Mus musculus [2] = experiment: In vivo activity against mice infected with murine p388 lymphocytic leukemia cells at a ip dose of 0.05 mg/kg; type: functional; details: route intraperitoneal
Mus musculus [3] = experiment: In vivo activity against mice infected with murine p388 lymphocytic leukemia cells at a ip dose of 0.2 mg/kg; type: functional; details: route intraperitoneal
[4] = In vivo activity against mice infected with murine p388 lymphocytic leukemia cells at a ip dose of 0.4 mg/kg; Toxic; type: toxicity, organism-based; parameters: dose 0.4 mg/kg, route intraperitoneal; details: mouse
[5] = In vivo activity against mice infected with murine p388 lymphocytic leukemia cells at a ip dose of 0.8 mg/kg; Toxic; type: toxicity, organism-based; parameters: dose 0.8 mg/kg, route intraperitoneal; details: mouse
[6] = In vivo activity was against mice infected with murine p388 lymphocytic leukemia cells at a ip dose of 0.8 mg/kg; Toxic; type: toxicity, organism-based; parameters: dose 0.8 mg/kg, route intraperitoneal; details: mouse
Mus musculus [7] = experiment: In vivo activity against mice infected with murine p388 lymphocytic leukemia cells at a ip dosage range of 0.05-1.6 mg/kg; Inactive; type: functional, organism-based
Mus musculus [8] = experiment: In vivo activity against mice infected with murine p388 lymphocytic leukemia cells at a ip dose of 0.4 mg/kg; type: functional; details: route intraperitoneal
Mus musculus [9] = experiment: In vivo activity against mice infected with murine p388 lymphocytic leukemia cells at a ip dose of 0.8 mg/kg; type: functional; details: route intraperitoneal
Mus musculus [10] = experiment: In vivo activity against mice infected with murine p388 lymphocytic leukemia cells at a ip dose of 0.2 mg/kg; Toxic; type: functional, organism-based; parameters: dose 0.2 mg/kg
[11] = In vivo activity against mice infected with mice infected with murine p388 lymphocytic leukemia cells at a ip dose of 0.4 mg/kg; Toxic; type: toxicity, organism-based; parameters: dose 0.4 mg/kg, route intraperitoneal; details: mouse

SMILES	ILS at 0.1 mg/kg (Mus musculus [1])	ILS at 0.05 mg/kg (Mus musculus [2])	ILS at 0.2 mg/kg (Mus musculus [3])	ILS [5]	ILS (Mus musculus [7])	ILS at 0.4 mg/kg (Mus musculus [8])	other results
C=C(C)C12OC3(c4ccccc4)OC1[C@@H]1[C@@H]4O[C@]4(CO)[C@@H](O)[C@]4(O)C(=O)C=C[C@@]4(C)C1(O3)[C@H](C)[C@H]2OC(=O)/C=C/C=C/CCCCC (stereo partly drawn)	33%	33%	42%	Toxic			ILS [4]: Toxic
C=C(C)C12OC3(c4ccccc4)OC1[C@@H]1[C@@H]4O[C@]4(CO)[C@@H](O)[C@]4(O)C(=O)C=C[C@@]4(C)C1(O3)[C@H](C)[C@H]2OC(=O)/C=C/C=C/c1ccccc1 (stereo partly drawn)	33%	33%	67%				ILS [6]: Toxic; ILS [4]: Toxic
C=C(C)C12OC3(c4ccccc4)OC1[C@@H]1[C@@H]4O[C@@]45COC(C)(C)O[C@H]5[C@]4(O)C(=O)C=C[C@@]4(C)C1(O3)[C@H](C)[C@H]2O (stereo partly drawn)					inactive		
C=C(C)C12OC3(c4ccccc4)OC1[C@@H]1[C@@H]4O[C@@]45COC(C)(C)O[C@H]5[C@]4(O)C(=O)C=C[C@@]4(C)C1(O3)[C@H](C)[C@H]2OC(=O)/C=C/c1ccccc1 (stereo partly drawn)					inactive		
C=C(C)C12OC3(c4ccccc4)OC1[C@@H]1[C@@H]4O[C@@]45COC(C)(C)O[C@H]5[C@]4(O)C(=O)C=C[C@@]4(C)C1(O3)[C@H](C)[C@H]2OC(=O)c1ccccc1 (stereo partly drawn)					inactive		
C=C(C)C12OC3(c4ccccc4)OC1[C@@H]1[C@@H]4O[C@]4(CO)[C@@H](O)[C@]4(O)C(=O)C=C[C@@]4(C)C1(O3)[C@H](C)[C@H]2OC(=O)c1ccccc1 (stereo partly drawn)	< 20%	< 20%	32%	Toxic		40%	
C=C(C)C12OC3(c4ccccc4)OC1[C@@H]1[C@@H]4O[C@@]45COC(C)(C)O[C@H]5[C@]4(O)C(=O)C=C[C@@]4(C)C1(O3)[C@H](C)[C@H]2OC(=O)/C=C/C=C/C=C/CCC (stereo partly drawn)					inactive		
C=C(C)C12OC3(c4ccccc4)OC1[C@@H]1[C@@H]4O[C@@]45COC(C)(C)O[C@H]5[C@]4(O)C(=O)C=C[C@@]4(C)C1(O3)[C@H](C)[C@H]2OC(=O)CCCCCCCCC (stereo partly drawn)					inactive		
C=C(C)C12OC3(c4ccccc4)OC1[C@@H]1[C@@H]4O[C@]4(CO)[C@@H](O)[C@]4(O)C(=O)C=C[C@@]4(C)C1(O3)[C@H](C)[C@H]2OC(=O)CCCCCCCCC (stereo partly drawn)	< 20%	< 20%	< 20%			42%	ILS at 0.8 mg/kg (Mus musculus [9]): 43%
CC(C)C12OC3(c4ccccc4)OC1[C@@H]1[C@@H]4O[C@]4(CO)[C@@H](O)[C@]4(O)C(=O)CC[C@@]4(C)C1(O3)[C@H](C)[C@H]2OC(=O)CCCCCCCCc1ccccc1 (stereo partly drawn)	< 20%	< 20%	< 20%			25%	ILS at 0.8 mg/kg (Mus musculus [9]): 25%
C=C(C)C12OC3(c4ccccc4)OC1[C@@H]1[C@@H]4O[C@]4(CO)[C@@H](O)[C@]4(O)C(=O)C(C)=C[C@H]4C1(O3)[C@H](C)[C@H]2OC(=O)/C=C/C=C/C=C/CCC (stereo partly drawn) [GNIDITRIN]	68%	44%		Toxic			ILS (Mus musculus [10]): Toxic; ILS [4]: Toxic
CC(C)C12OC3(c4ccccc4)OC1[C@@H]1[C@@H]4O[C@]4(CO)[C@@H](O)[C@]4(O)C(=O)CC[C@@]4(C)C1(O3)[C@H](C)[C@H]2OC(=O)CCc1ccccc1 (stereo partly drawn)	< 20%	< 20%	< 20%			25%	ILS at 0.8 mg/kg (Mus musculus [9]): 30%
C=C(C)C12OC3(c4ccccc4)OC1[C@@H]1[C@@H]4O[C@@]45COC(C)(C)O[C@H]5[C@]4(O)C(=O)C=C[C@@]4(C)C1(O3)[C@H](C)[C@H]2OC(=O)/C=C/C=C/c1ccccc1 (stereo partly drawn)					inactive		
CCCCCCCCCC(=O)O[C@@H]1[C@@H](C)C23OC4(c5ccccc5)OC([C@@H]2[C@@H]2O[C@]2(CO)[C@@H](O)[C@]2(O)C(=O)C=C[C@@]32C)C1(C(C)C)O4 (stereo partly drawn)	< 20%	< 20%	< 20%			30%	ILS at 0.8 mg/kg (Mus musculus [9]): 27%
CC(C)C12OC3(c4ccccc4)OC1[C@@H]1[C@@H]4O[C@]4(CO)[C@@H](O)[C@]4(O)C(=O)C=C[C@@]4(C)C1(O3)[C@H](C)[C@H]2OC(=O)CCCCc1ccccc1 (stereo partly drawn)	< 20%	< 20%	43%	Toxic		43%	
C=C(C)C12OC3(c4ccccc4)OC1[C@@H]1[C@@H]4O[C@]4(CO)[C@@H](O)[C@]4(O)C(=O)C=C[C@@]4(C)C1(O3)[C@H](C)[C@H]2O (stereo partly drawn)					inactive		
CC(C)C12OC3(c4ccccc4)OC1[C@@H]1[C@@H]4O[C@]4(CO)[C@@H](O)[C@]4(O)C(=O)C=C[C@@]4(C)C1(O3)[C@H](C)[C@H]2OC(=O)CCc1ccccc1 (stereo partly drawn)	< 20%	< 20%	38%	Toxic		40%	
C=C(C)C12OC3(c4ccccc4)OC1[C@@H]1[C@@H]4O[C@]4(CO)[C@@H](O)[C@]4(O)C(=O)C=C[C@@]4(C)C1(O3)[C@H](C)[C@H]2OC(=O)/C=C/c1ccccc1 (stereo partly drawn)	60%	< 20%	73%	Toxic			ILS [11]: Toxic
CC(C)C12OC3(c4ccccc4)OC1[C@@H]1[C@@H]4O[C@]4(CO)[C@@H](O)[C@]4(O)C(=O)C=C[C@@]4(C)C1(O3)[C@H](C)[C@H]2OC(=O)c1ccccc1 (stereo partly drawn)	30%	< 20%	42%	Toxic		48%	
C=C(C)C12OC3(c4ccccc4)OC1[C@@H]1[C@@H]4O[C@@]45COC(C)(C)O[C@H]5[C@]4(O)C(=O)C=C[C@@]4(C)C1(O3)[C@H](C)[C@H]2OC(=O)/C=C/C=C/CCCCC (stereo partly drawn)					inactive		
CC(C)C12OC3(c4ccccc4)OC1[C@@H]1[C@@H]4O[C@]4(CO)[C@@H](O)[C@]4(O)C(=O)CC[C@@]4(C)C1(O3)[C@H](C)[C@H]2OC(=O)CCCCc1ccccc1 (stereo partly drawn)	< 20%	< 20%	< 20%			29%	ILS at 0.8 mg/kg (Mus musculus [9]): 27%
